The results in this text go back to patent publication US12528767B2, “HDAC6 inhibitors and uses thereof” (Eikonizo Therapeutics, Inc., priority 2019, dated 2026).

Test [1] concerns the target T1, Human HDAC7 aa 518-end (Homo sapiens, UniProt Q8WUI4).
T1 sequence (Q8WUI4 518-952 limits assumed): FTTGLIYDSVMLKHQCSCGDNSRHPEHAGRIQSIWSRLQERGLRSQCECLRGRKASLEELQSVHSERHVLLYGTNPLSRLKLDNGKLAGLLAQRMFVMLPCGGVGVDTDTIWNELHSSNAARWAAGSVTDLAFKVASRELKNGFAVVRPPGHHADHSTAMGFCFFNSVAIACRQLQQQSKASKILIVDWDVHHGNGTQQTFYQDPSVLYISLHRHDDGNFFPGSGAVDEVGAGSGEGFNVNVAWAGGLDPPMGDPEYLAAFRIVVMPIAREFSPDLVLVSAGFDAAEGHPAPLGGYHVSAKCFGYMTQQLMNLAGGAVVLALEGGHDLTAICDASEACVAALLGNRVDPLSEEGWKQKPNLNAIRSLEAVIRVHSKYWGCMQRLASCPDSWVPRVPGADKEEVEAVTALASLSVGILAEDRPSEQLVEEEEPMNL

Test [2] addresses T2, Full length Human HDAC8 (Homo sapiens, UniProt Q9BY41).
T2 sequence (Q9BY41 1-377): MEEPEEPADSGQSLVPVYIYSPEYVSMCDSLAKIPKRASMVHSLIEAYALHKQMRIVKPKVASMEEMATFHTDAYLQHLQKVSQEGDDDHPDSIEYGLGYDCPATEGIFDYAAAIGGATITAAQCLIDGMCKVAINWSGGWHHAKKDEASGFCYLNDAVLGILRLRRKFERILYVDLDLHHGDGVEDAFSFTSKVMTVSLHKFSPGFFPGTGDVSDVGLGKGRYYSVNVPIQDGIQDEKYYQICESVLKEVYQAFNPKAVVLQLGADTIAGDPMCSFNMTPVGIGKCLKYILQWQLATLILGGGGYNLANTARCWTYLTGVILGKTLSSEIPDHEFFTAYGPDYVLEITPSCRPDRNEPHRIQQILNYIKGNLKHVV

The target of test [3] is T3, Full length Human HDAC10 (Homo sapiens, UniProt Q969S8).
T3 sequence (Q969S8 1-669): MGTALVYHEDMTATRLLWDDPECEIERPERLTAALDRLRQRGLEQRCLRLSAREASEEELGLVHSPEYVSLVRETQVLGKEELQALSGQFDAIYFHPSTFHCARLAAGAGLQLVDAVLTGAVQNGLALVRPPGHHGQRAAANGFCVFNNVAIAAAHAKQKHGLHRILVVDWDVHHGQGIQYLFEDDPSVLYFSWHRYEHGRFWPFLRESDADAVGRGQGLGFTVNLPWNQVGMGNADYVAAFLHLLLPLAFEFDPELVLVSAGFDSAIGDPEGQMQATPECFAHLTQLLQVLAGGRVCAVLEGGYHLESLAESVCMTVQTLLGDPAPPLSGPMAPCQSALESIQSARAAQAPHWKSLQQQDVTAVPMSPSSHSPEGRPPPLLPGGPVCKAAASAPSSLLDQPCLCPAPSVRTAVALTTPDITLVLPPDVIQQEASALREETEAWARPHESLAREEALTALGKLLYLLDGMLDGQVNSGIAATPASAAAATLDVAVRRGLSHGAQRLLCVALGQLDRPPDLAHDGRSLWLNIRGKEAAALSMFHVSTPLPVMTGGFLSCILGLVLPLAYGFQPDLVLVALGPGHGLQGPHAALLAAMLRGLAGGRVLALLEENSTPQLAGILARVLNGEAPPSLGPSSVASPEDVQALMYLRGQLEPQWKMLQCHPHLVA

In test [4] the target is T4, Full length Human HDAC6 (Homo sapiens, UniProt Q9UBN7).
T4 sequence (Q9UBN7 1-1215): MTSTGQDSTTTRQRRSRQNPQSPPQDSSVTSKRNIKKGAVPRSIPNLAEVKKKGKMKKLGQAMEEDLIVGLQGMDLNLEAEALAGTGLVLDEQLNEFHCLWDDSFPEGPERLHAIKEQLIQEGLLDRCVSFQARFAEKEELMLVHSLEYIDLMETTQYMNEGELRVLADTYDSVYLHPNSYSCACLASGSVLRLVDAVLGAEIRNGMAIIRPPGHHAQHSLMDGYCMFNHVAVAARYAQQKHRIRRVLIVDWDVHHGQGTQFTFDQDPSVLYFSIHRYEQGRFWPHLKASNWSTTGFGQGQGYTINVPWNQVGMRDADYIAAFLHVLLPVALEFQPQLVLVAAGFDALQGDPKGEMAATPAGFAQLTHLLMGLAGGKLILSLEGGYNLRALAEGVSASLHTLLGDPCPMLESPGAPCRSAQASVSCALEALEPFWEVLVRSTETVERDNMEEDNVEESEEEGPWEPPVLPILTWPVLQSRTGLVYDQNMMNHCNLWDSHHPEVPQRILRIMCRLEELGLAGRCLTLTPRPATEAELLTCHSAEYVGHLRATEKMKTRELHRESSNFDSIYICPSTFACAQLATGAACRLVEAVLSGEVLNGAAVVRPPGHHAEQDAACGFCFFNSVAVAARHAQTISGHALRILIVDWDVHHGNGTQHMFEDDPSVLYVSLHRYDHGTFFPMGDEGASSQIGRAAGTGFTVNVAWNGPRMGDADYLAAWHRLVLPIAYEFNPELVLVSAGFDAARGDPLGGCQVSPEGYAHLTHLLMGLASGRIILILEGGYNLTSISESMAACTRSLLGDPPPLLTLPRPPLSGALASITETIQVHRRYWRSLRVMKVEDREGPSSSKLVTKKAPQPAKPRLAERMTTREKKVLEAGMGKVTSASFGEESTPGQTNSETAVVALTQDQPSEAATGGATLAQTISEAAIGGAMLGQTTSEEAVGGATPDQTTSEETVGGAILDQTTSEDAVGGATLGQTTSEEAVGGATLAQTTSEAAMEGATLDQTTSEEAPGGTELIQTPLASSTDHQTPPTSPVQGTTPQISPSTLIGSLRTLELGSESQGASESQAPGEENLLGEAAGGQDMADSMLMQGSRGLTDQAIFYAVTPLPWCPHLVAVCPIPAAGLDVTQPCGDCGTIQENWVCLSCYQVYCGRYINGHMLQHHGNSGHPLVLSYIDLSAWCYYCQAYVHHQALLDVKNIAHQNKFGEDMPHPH
The note with it: for Selectivity (6 v 8) (fold): ratio of HDAC8 IC50/HDAC6 IC50.

Where [5] appears, read: read-out: In vitro enzymatic IC50, HDAC Paralog 8, Table 2.
Setting [6] is: read-out: In vitro enzymatic IC50, HDAC Paralog 6, Table 2.

Like-named read-outs stand apart in the source and are kept apart here.

`CC1(C)C[C@H]2Cc3c(F)cc(C(=O)NO)cc3CN2C1` (single isomer, unassigned) [compound 128]: the IC50 is 1000 to 10000 nM in test [1], 1000 to 10000 nM in test [2], more than 100000 nM in test [3] and 100 to 1000 nM in test [4].
Turning to `O=C(NO)c1ccc2c(c1)C[C@H]1COCC(=O)N1C2` (single isomer, unassigned) [compound 134], the IC50 in test [1] was 10000 to 100000 nM; in test [2] it was 1000 to 10000 nM; in test [3], 10000 to 100000 nM; in test [4], 1 to 100 nM.
`O=C(NO)c1cc(F)c2c(c1)C[C@@H]1CC3(CCCCC3)CN1C2` (single isomer, unassigned) [compound 136]: the IC50 in test [1] is 1000 to 10000 nM; in test [2], 1000 to 10000 nM; in test [3], more than 100000 nM; in test [4], 1 to 100 nM.
On to `O=C(NO)c1cc(F)c2c(c1)CCN1CCCC[C@@H]21` (single isomer, unassigned) [compound 139], for which the IC50 is 1000 to 10000 nM in test [1], 1000 to 10000 nM in test [2], 10000 to 100000 nM in test [3] and 1 to 100 nM in test [4].
For `C[C@H]1CC[C@H]2c3c(F)cc(C(=O)NO)cc3CCN12` (single isomer, unassigned) [compound 157], the IC50 in test [1] fell in the range of 100 to 1000 nM; in test [2], 1000 to 10000 nM; in test [3] it was 10000 to 100000 nM; in test [4], 1 to 100 nM.
For `C[C@@H]1CC[C@H]2c3c(F)cc(C(=O)NO)cc3CCN12` (single isomer, unassigned) [compound 158] the same measures were 100 to 1000 nM, 1000 to 10000 nM, more than 100000 nM and 1 to 100 nM.
Consider `CN1CC2(CCCCC2)CC[C@@H]1Cc1cc(F)cc(C(=O)NO)c1` (single isomer, unassigned) [compound 170], for which the IC50 was in the range of 1000 to 10000 nM in test [1]; 1000 to 10000 nM in test [2]; 1000 to 10000 nM in test [2] (setting [5]); 10000 to 100000 nM in test [3]; 1 to 100 nM in test [4]; 1 to 100 nM in test [4] (setting [6]). In addition, the “Selectivity (6 v 8) (fold)” value in test [4] (Table 1, number) is 68 fold; in test [4] (Table 1, range class), “III (III: >10-100)”.
On to `O=C(NO)c1cc(F)c2c(c1)CCN(CC1CCCCC1)C2` [compound 19], for which the IC50 is 10000 to 100000 nM in test [1]; 1000 to 10000 nM in test [2]; 1000 to 10000 nM in test [2] (setting [5]); 10000 to 100000 nM in test [3]; 1 to 100 nM in test [4]; 1 to 100 nM in test [4] (setting [6]).
With `CC(C)(C)CN1CCc2cc(C(=O)NO)cc(F)c2C1` [compound 20], the IC50 in test [1] was more than 100000 nM; in test [2], 10000 to 100000 nM; in test [2] (setting [5]) it was 10000 to 100000 nM; in test [3], 10000 to 100000 nM; in test [4], 1 to 100 nM; in test [4] (setting [6]), 1 to 100 nM.
Turning to `O=C(NO)c1cc(F)c2c(c1)CCN(C1COC1)C2` [compound 24], the IC50 in test [1] is 1000 to 10000 nM; in test [2], 1000 to 10000 nM; in test [2] (setting [5]) it was 1000 to 10000 nM; in test [3], more than 100000 nM; in test [4], 1 to 100 nM; in test [4] (setting [6]), 1 to 100 nM.
For the compound `O=C(NO)c1cc(F)c2c(c1)CCN(CC1COC1)C2` [compound 27], the IC50 in test [1] was 1000 to 10000 nM; in test [2] it was 10000 to 100000 nM; in test [2] (setting [5]), 10000 to 100000 nM; in test [3] it was more than 100000 nM; in test [4], 1 to 100 nM; in test [4] (setting [6]), 1 to 100 nM.
In the case of `O=C(NO)c1ccc(CN2C3CCC2CC(=NO)C3)c(F)c1` [compound 54], the IC50 in test [1] is 1000 to 10000 nM; in test [2], 100 to 1000 nM; in test [2] (setting [5]), 100 to 1000 nM; in test [3], more than 100000 nM; in test [4] it was 1 to 100 nM; in test [4] (setting [6]) it was 1 to 100 nM. In addition, the “Selectivity (6 v 8) (fold)” value in test [4] (Table 1, number) is on record as 38.9 fold; in test [4] (Table 1, range class), “III (III: >10-100)”.
As to `O=C(NO)c1ccc(CN2C3CCC2COC3)c(F)c1` [compound 59], the IC50 was in the range of 1000 to 10000 nM in test [1]; 100 to 1000 nM in test [2]; 100 to 1000 nM in test [2] (setting [5]); 10000 to 100000 nM in test [3]; 1 to 100 nM in test [4]; 1 to 100 nM in test [4] (setting [6]).
Consider `O=C(NO)c1ccc(CN2C3CCCC2CCC3)c(F)c1` [compound 60], for which the IC50 is 1000 to 10000 nM in test [1]; 1000 to 10000 nM in test [2]; 1000 to 10000 nM in test [2] (setting [5]); more than 100000 nM in test [3]; 100 to 1000 nM in test [4]; 100 to 1000 nM in test [4] (setting [6]). The “Selectivity (6 v 8) (fold)” value is reported as 5.8 fold in test [4] (Table 1, number) and “II (II: >1-10)” in test [4] (Table 1, range class).
With `O=C(NO)c1ccc(CN2C3CCCC2CC3)c(F)c1` [compound 61], the IC50 is 1000 to 10000 nM in test [1]; 1000 to 10000 nM in test [2]; 1000 to 10000 nM in test [2] (setting [5]); more than 100000 nM in test [3]; 100 to 1000 nM in test [4]; 100 to 1000 nM in test [4] (setting [6]). Also, the “Selectivity (6 v 8) (fold)” value in test [4] (Table 1, number) is given as 9.6 fold; in test [4] (Table 1, range class), “II (II: >1-10)”.
Regarding `O=C(NO)c1cc(F)c(CN2CCC3(CCCCC3)C2)cc1F` [compound 67], the IC50 in test [1] is 1000 to 10000 nM; in test [2], 1000 to 10000 nM; in test [2] (setting [5]), 1000 to 10000 nM; in test [3], 10000 to 100000 nM; in test [4] it was 1 to 100 nM; in test [4] (setting [6]), 1 to 100 nM. Also, the “Selectivity (6 v 8) (fold)” value is on record as 20 fold in test [4] (Table 1, number) and “III (III: >10-100)” in test [4] (Table 1, range class).

For orientation: IC50 means the concentration at which inhibition is half-maximal.
